These are literature values, as cited in patent US20200338012A1 (TAHO Pharmaceuticals Ltd., priority 2019, published 2020).

For data set [1] the following is noted: oral tablet.

Converted amounts (≈) assume the structure as drawn.

For `COc1ccc(-n2nc(C(N)=O)c3c2C(=O)N(c2ccc(N4CCCCC4=O)cc2)CC3)cc1` [apixaban, Apixaban], the water solubility was 67.9 µg/mL (≈ 148 µM). The bioavailability in data set [1] is recorded as 50%.

By bioavailability is commonly meant dose-corrected exposure relative to a reference, in per cent.
